Source: PMC5826726 (Biochemical pharmacology, 2017)
Like-named read-outs stand apart in the source and are kept apart here. Blank lines part the entries; values can stand above or below the compound they belong to.

What was measured:
[1] = PAMPA; for Flux: 4 h, 400 µM
[2] = target: T1, NNMT (Mus musculus, UniProt O55239); conditions: read-out: IC50 (NNMT inhibition); biochemical assay; cited from earlier work
T1 sequence (O55239 1-264): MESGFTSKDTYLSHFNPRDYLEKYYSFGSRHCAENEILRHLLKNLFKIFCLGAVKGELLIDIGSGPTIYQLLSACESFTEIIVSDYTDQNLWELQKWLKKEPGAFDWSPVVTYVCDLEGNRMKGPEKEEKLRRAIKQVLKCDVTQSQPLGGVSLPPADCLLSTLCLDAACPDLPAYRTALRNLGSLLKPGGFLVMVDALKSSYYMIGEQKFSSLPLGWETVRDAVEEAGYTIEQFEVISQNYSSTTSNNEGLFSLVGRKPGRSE

[3] = target: T1, NNMT; experiment: Intracellular NNMT reaction product 1-MNA in cultured 3T3-L1 cells; conditions: 24 h; for 1-MNA levels in adipocytes relative to control: 10 µM; for Intracellular levels of 1-MNA vs untreated controls: 30 µM
[4] = target: recombinant human DNMT1 (Homo sapiens, UniProt P26358); experiment: DNMT1 radiometric activity assay; format: biochemical; conditions: for Inhibition of DNMT1: 10 nM to 200 µM (1,8-diMQ) or 600 µM (5-amino-1MQ); for IC50: read-out: IC50, DNA (cytosine-5)-methyltransferase 1, NI: no inhibition, NC: not calculable
Sequence of recombinant human DNMT1 (P26358 whole entry): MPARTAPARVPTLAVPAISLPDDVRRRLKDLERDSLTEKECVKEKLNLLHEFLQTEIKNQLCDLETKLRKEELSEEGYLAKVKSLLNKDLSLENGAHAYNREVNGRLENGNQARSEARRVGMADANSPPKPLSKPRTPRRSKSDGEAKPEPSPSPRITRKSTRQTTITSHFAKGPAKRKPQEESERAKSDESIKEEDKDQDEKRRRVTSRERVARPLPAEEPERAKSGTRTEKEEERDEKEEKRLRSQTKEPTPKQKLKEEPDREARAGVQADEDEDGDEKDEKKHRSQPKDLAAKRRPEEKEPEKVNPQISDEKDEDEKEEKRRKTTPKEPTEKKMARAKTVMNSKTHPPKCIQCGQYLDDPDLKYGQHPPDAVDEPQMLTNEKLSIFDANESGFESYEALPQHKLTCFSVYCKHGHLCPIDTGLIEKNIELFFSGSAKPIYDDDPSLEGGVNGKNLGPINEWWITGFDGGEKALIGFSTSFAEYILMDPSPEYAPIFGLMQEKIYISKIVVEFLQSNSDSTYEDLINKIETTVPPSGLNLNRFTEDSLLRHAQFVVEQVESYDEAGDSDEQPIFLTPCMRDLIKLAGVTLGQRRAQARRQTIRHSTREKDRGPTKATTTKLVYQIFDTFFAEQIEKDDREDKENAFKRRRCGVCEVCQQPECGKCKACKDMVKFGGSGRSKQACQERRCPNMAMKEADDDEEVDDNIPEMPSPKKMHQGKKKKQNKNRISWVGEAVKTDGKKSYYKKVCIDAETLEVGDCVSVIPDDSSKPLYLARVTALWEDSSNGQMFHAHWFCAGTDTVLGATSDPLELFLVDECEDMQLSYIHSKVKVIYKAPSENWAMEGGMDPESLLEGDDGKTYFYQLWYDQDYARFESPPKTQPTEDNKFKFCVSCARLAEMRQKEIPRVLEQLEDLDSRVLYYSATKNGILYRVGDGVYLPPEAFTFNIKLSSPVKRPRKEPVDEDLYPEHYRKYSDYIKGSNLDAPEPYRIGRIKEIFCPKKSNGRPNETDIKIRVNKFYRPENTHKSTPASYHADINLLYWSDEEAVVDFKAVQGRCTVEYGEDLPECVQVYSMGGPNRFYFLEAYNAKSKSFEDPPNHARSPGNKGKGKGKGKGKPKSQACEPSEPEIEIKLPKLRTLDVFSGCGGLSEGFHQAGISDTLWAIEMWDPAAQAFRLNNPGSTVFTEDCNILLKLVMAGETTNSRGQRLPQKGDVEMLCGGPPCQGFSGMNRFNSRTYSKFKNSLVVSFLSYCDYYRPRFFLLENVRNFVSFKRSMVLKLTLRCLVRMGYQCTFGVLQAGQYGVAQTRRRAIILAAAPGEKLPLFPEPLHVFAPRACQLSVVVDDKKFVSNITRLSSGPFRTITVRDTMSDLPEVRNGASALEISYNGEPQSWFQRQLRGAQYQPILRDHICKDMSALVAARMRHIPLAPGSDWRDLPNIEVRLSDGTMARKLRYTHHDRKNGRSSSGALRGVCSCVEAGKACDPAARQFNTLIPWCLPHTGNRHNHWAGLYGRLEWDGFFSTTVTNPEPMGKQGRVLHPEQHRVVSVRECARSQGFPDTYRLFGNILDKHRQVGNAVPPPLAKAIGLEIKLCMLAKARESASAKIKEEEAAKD

[5] = target: recombinant human PRMT3 (Homo sapiens, UniProt O60678); experiment: PRMT3 radiometric activity assay; format: biochemical; conditions: for Inhibition of PRMT3: 10 nM to 200 µM (1,8-diMQ) or 600 µM (5-amino-1MQ)
Sequence of recombinant human PRMT3 (O60678 whole entry): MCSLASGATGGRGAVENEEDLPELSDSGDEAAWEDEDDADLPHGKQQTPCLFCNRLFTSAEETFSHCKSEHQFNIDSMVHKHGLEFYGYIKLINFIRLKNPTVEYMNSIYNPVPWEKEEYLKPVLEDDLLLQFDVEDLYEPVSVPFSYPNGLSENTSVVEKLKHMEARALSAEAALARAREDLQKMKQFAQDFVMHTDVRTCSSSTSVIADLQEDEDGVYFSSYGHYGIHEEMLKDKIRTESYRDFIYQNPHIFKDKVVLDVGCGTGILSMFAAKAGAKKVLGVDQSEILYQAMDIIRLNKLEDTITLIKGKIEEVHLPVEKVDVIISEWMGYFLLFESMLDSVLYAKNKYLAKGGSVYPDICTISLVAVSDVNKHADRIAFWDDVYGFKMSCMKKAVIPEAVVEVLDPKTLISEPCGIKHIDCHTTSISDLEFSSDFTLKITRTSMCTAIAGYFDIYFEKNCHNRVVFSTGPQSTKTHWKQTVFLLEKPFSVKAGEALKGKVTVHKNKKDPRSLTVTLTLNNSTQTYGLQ

[6] = target: T2, recombinant human COMT (Homo sapiens, UniProt P21964); experiment: COMT radiometric activity assay; format: biochemical
T2 sequence (P21964 1-271): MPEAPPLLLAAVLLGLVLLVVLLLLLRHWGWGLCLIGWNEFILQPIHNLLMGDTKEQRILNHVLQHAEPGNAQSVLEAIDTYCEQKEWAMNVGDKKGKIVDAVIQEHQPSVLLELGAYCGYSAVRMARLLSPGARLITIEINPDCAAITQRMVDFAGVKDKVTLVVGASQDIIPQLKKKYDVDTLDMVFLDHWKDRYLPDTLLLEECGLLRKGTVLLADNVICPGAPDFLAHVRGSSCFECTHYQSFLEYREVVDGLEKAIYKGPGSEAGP

[7] = tested on: Caco-2 cells; experiment: Bi-directional permeability assay with Caco-2 cells
[8] = Parallel artificial membrane permeability assay; conditions: for Flux: PAMPA passive transport, 400 µM donor in PBS, 4 h, room temperature; for Permeability Classification: PAMPA, BCS, Biopharmaceutics Classification System
[9] = tested on: Caco-2 cells; conditions: for Classification (Caco-2 permeability/efflux) / Efflux Ratio (Re): Caco-2; for Mean A➔B Papp / Mean B➔A Papp: Caco-2, pH 7.4
[10] = tested on: 3T3-L1 pre-adipocytes; experiment: MTT cell viability assay; format: cell-based; conditions: highest tested concentration (0.1 – 60 µM range, Figure 6C)
[11] = target: recombinant human NAMPT (Homo sapiens, UniProt P43490); experiment: NAMPT fluorometric activity assay; format: biochemical
Sequence of recombinant human NAMPT (P43490 whole entry): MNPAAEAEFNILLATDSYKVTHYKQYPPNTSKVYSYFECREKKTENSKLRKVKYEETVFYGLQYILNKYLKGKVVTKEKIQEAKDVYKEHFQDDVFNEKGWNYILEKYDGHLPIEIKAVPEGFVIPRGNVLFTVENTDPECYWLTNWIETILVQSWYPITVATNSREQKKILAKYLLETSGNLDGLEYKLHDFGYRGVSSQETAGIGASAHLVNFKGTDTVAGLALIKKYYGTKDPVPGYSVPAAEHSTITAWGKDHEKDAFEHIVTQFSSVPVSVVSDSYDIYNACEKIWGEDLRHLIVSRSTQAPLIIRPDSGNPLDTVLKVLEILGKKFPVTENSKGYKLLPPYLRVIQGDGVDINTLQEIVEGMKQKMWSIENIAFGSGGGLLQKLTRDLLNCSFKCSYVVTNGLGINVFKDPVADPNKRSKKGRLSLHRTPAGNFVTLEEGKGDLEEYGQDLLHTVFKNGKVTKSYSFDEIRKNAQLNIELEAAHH

[12] = target: T3, recombinant human SIRT-1 (Homo sapiens, UniProt Q96EB6); experiment: SIRT-1 fluorometric activity assay; format: biochemical
T3 sequence (Q96EB6 1-747): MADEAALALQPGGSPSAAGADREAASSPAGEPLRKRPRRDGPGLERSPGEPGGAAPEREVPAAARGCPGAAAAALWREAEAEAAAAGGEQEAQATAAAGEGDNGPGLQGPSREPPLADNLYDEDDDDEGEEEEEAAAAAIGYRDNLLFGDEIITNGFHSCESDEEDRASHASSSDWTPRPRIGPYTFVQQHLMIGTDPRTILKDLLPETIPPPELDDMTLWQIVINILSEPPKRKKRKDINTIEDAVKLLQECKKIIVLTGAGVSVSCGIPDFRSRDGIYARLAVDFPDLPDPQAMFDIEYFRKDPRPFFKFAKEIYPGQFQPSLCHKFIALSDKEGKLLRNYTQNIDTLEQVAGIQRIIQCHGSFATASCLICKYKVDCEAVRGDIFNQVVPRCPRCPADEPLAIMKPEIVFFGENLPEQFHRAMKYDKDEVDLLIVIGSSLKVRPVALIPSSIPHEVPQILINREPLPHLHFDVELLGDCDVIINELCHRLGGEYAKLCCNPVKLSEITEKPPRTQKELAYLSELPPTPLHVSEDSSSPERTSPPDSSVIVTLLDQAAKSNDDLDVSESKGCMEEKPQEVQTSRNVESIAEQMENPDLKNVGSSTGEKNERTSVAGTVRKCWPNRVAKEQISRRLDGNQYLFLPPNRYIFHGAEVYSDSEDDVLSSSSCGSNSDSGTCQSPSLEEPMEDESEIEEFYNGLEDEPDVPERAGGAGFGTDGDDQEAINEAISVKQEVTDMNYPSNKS

[13] = tested on: DIO C57Bl/6 mice; experiment: Efficacy in diet-induced obese; format: in vivo
[14] = tested on: 3T3-L1 cells; experiment: Adipocyte differentiation / lipogenesis by oil red O staining; format: cell-based; conditions: differentiating 3T3-L1 cells
[15] = tested on: differentiated 3T3-L1 adipocytes; experiment: Intracellular metabolites; conditions: 24 h
[16] = DIO mice, 20 mg/kg SC three times daily, 11 days

Permeability Classification [1]: Low permeability
Flux [1]: 6.982e-07 cm/s
1-MNA levels in adipocytes relative to control ([3]; differentiated adipocytes): did not significantly decrease
SMILES: Cc1cc(C)[n+](C)c2c(C)cccc12 [1,2,4,8-tetraMQ]
IC50 [2]: 109 µM

Inhibition of DNMT1 [4]: did not inhibit
IC50 [4]: > 200 µM
Inhibition of PRMT3 [5]: did not inhibit
Inhibition of COMT ([6]; maximal tested concentration 200 µM): 20%
Mean B➔A Papp ([7]; Caco-2, 10 µM, 2 h, pH 7.4): 1.78 10^−6 cm/s
Mean A➔B Papp ([7]; Caco-2, 10 µM, 2 h, pH 7.4, BLQ: no peak detected in receiver side sample): BLQ
Classification (Caco-2 permeability/efflux) ([7]; Caco-2 assay): Low permeability
Flux [8]: 8.637e-07 cm/s
Permeability Classification [8]: Low permeability
SMILES: Cc1cccc2ccc[n+](C)c12 [1,8-diMQ]
IC50 [2]: 1.8 µM

SMILES: C[n+]1cccc(C(N)=O)c1 [1-MNA, 1-methylnicotinamide, reference compound]
Flux [8]: 0 cm/s
Permeability Classification [8]: No permeability

Permeability Classification [1]: No permeability
SMILES: C[n+]1cccc2ccccc21 [1-MQ, 1-methylquinolinium]
IC50 [2]: 12.1 µM

Permeability Classification [1]: High permeability
Flux [1]: 3.898e-06 cm/s
Classification (Caco-2 permeability/efflux) [9]: Moderate permeability (moderate efflux)
Efflux Ratio (Re) [9]: 4.03
Mean A➔B Papp [9]: 5.27 10^−6 cm/s
Mean B➔A Papp [9]: 21.2 10^−6 cm/s
SMILES: C[n+]1c(N)c(N)cc2ccccc21 [2,3-diamine-1MQ]
IC50 [2]: 2.8 µM

Permeability Classification [1]: Moderate permeability
Flux [1]: 1.078e-06 cm/s
1-MNA levels in adipocytes relative to control ([3]; differentiated adipocytes): significantly decreased
SMILES: C[n+]1cc(N)cc2cc(F)ccc21 [3-amino-6-fluoro-1MQ]
IC50 [2]: 1.2 µM

SMILES: C[n+]1cccc2c(N)cccc21 [5-amino-1MQ, 5-amino-1-methylquinolinium]
3T3-L1 cell viability vs untreated [10]: only slightly reduced
Inhibition of DNMT1 [4]: did not inhibit
IC50 [4]: > 200 µM
Inhibition of PRMT3 [5]: did not inhibit
Inhibition of COMT ([6]; maximal tested concentration 600 µM): 10%
IC50 ([11]; read-out: IC50, Nicotinamide phosphoribosyl transferase, concentrations above 100 µM could not be tested due to interference in the assay readout signal): > 100 µM
Inhibition of NAMPT ([11]; up to a tested concentration of 100 µM): did not inhibit
Inhibition of SIRT1 ([12]; 10 nM – 300 µM): did not inhibit
SIRT1 activity ([12]; 600 µM): minor reduction
Tolerability in dose escalation study ([13]; DIO mice (n=2), total dose of 60 mg/kg/day): well tolerated with no observable adverse effects
Decrease in adipocyte size (EWAT histology) vs control DIO mice [13, 16]: > 30%
Total cumulative food intake [13, 16]: 26.2 ± 1.4 g
Decrease in adipocyte volume vs control DIO mice ([13]; DIO mice, 20 mg/kg SC three times daily, 11 days (data not shown)): > 40%
Plasma total cholesterol lower relative to control DIO mice ([13]; DIO mice, 20 mg/kg SC three times daily, 11 days, 4 h fast): ~ 30%
Reduction of lipogenesis vs control untreated adipocytes ([14]; 30 µM): 50%
Reduction of lipogenesis vs control untreated adipocytes ([14]; 60 µM): 70%
Permeability Classification [1]: High permeability
Flux [1]: 3.015e-06 cm/s
Classification (Caco-2 permeability/efflux) [9]: High permeability (no efflux)
Mean A➔B Papp [9]: 34.2 10^−6 cm/s
Mean B➔A Papp [9]: 45.2 10^−6 cm/s
IC50 [2]: 1.2 µM
Efflux Ratio (Re) ([7]; Re=Papp (B→A)/Papp (A→B)): 1.33
Relative intracellular 1-MNA level (of level in untreated adipocytes) ([3]; adipocytes, 10–60 µM, plateau): ~ 40%
1-MNA levels in adipocytes relative to control ([3]; differentiated adipocytes): significantly decreased
Intracellular levels of 1-MNA vs untreated controls ([3]; differentiated adipocytes): significant reduction
Intracellular levels of 1-MNA vs untreated controls ([3]; pre-adipocytes): significant reduction
EC50 ([3]; read-out: EC50 (inhibition of NNMT, intracellular 1-MNA), fully differentiated adipocytes, 0.3–60 µM): 2.3 µM
Intracellular NAD+ levels vs control ([15]; 10 µM): significant increase
Intracellular SAM levels vs control ([15]; 30 µM): significant increase
Intracellular levels of NA ([15]; 0.3–60 µM): no statistically significant main effect
Intracellular levels of SAH ([15]; 0.3–60 µM): no statistically significant main effect
Increase in NAD+ levels relative to control adipocytes ([15]; 1–60 µM): 1.2–1.6 fold

SMILES: C[n+]1cccc2c(N)c(F)ccc21 [5-amino-6-fluoro-1MQ]
Inhibition of NAMPT ([11]; concentrations between 30 and 600 µM (data not shown)): no inhibition

Permeability Classification [1]: High permeability
Flux [1]: 2.055e-06 cm/s
Classification (Caco-2 permeability/efflux) [9]: High permeability (no efflux)
Efflux Ratio (Re) [9]: 1.52
Mean A➔B Papp [9]: 26.0 10^−6 cm/s
Mean B➔A Papp [9]: 39.6 10^−6 cm/s
SMILES: C[n+]1cccc2ccc(N)cc21 [7-amino-1MQ]
IC50 [2]: 2.6 µM

Permeability Classification [1]: High permeability
SMILES: c1ccc2ncccc2c1 [Quinoline, reference compound]

IC50 ([5]; read-out: IC50, Protein arginine methyltransferase 3, NI: no inhibition, NC: not calculable): 6.6 ± 1.2 µM
SMILES: Nc1ncnc2c1ncn2[C@@H]1O[C@H](CSCC[C@H](N)C(=O)O)[C@@H](O)[C@H]1O [SAH, reference compound]
